pIC50: −log10 of the molar value.
Target: human PCSK9 (Homo sapiens, UniProt Q8NBP7)
Assay: PCSK9 ligand binding TR-FRET assay (interference with binding of human PCSK9 to human LDLR)
Settings: for Max % inhibition: PCSK9 FRET assay, efficacy (Amax), 100% = 1 uM unlabeled human PCSK9, 0% = DMSO; for pIC50: TR-FRET, human PCSK9 Alexa Fluor 647 / human LDLR extracellular domain-Europium Kryptate, read-out: PCSK9 FRET Assay IC50
Procedure, shortened: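 Threefold compound dilutions were pre-incubated 30 min with PCSK9, after which 4 nM Europium Kryptate-tagged human LDLR ectodomain was added for a further 2 h.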

Sequence of human PCSK9 (Q8NBP7 153-692): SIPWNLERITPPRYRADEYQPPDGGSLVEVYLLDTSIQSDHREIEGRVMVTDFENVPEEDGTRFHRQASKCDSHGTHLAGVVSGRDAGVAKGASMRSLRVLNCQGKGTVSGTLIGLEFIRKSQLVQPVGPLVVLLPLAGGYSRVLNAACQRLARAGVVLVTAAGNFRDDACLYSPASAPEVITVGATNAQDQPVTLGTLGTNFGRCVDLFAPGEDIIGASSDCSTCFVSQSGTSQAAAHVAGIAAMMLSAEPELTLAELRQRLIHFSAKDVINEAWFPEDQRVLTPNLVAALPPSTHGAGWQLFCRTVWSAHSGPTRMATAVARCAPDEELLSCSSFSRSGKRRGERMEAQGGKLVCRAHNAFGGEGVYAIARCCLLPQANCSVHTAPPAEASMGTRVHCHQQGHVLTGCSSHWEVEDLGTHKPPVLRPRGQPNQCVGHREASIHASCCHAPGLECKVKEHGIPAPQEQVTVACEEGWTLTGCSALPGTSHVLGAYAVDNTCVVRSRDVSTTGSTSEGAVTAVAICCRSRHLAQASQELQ
Sequence of human PCSK9 (Q8NBP7 31-152 partner limits assumed): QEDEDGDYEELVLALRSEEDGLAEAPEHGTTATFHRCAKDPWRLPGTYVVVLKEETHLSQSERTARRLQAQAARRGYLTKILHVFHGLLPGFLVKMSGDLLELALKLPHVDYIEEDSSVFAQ

SMILES | Max % inhibition [%] | pIC50
COC[C@@H]1NC(=O)[C@H](C)N(Cc2ccc(Cl)cc2Oc2ccc(-c3cnc(CN(C)C)n3C)cc2)C(=O)C[C@@H](CC#N)C(=O)N(C)[C@H]2CCCC[C@@H]2NC(=O)C[C@H](Cc2ccc(Cl)cc2)N(C)C1=O [Compound 89, 2-((4S,7S,10S,14R,16aS,20aS)-11-(4-chloro-2-(4-(2-((dimethylamino)methyl)-1-methyl-1H-imidazol-5-yl)phenoxy)benzyl)-4-(4-chlorobenzyl)-7-(methoxymethyl)-5,10,16-trimethyl-2,6,9,12,15-pentaoxodocosahydrobenzo[l][1,4,7,11,14]pentaazacyclooctadecin-14-yl)acetonitrile] | 85.89 | 8.80
COC[C@@H]1NC(=O)[C@H](CCCN(C)C)N(Cc2ccc(Cl)cc2Oc2ccc(-c3cnc(CN(C)C)n3C)cc2)C(=O)C[C@@H](Cc2ccccc2)C(=O)N(C)[C@@H](C)[C@H](C)NC(=O)C[C@H](Cc2ccc(Cl)cc2)N(C)C1=O [Compound 90, (2S,5S,8S,12S,13S,16R)-16-benzyl-1-(4-chloro-2-(4-(2-((dimethylamino)methyl)-1-methyl-1H-imidazol-5-yl)phenoxy)benzyl)-8-(4-chlorobenzyl)-2-(3-(dimethylamino)propyl)-5-(methoxymethyl)-7,12,13,14-tetramethyl-1,4,7,11,14-pentaazacyclooctadecane-3,6,10,15,18-pentaone] | 101.52 | 8.68
COC[C@@H]1NC(=O)[C@@H](CCN(C)C)N(Cc2ccc(Cl)cc2Oc2ccc(-c3cnc(CN(C)C)n3C)cc2)C(=O)C[C@@H](Cc2ccccn2)C(=O)N(C)[C@H]2CCCC[C@@H]2NC(=O)C[C@H](Cc2ccc(Cl)cc2)N(C)C1=O [Compound 91, (4S,7S,10R,14R,16aS,20aS)-11-(4-chloro-2-(4-(2-((dimethylamino)methyl)-1-methyl-1H-imidazol-5-yl)phenoxy)benzyl)-4-(4-chlorobenzyl)-10-(2-(dimethylamino)ethyl)-7-(methoxymethyl)-5,16-dimethyl-14-(pyridin-2-ylmethyl)hexadecahydrobenzo[l][1,4,7,11,14]pentaazacyclooctadecine-2,6,9,12,15(3H)-pentaone] | 86.95 | 6.77
COC[C@@H]1NC(=O)[C@H](C)N(Cc2ccc(Cl)cc2Oc2ccc(-c3cnc(OC(C)C)n3C)cc2)C(=O)C[C@@H](Cc2ccccc2)C(=O)N(C)[C@@H](C)CNC(=O)C[C@H](Cc2ccc(Cl)cc2)N(C)C1=O [Compound 92, (2S,5S,8S,13S,16R)-16-benzyl-1-(4-chloro-2-(4-(2-isopropoxy-1-methyl-1H-imidazol-5-yl)phenoxy)benzyl)-8-(4-chlorobenzyl)-5-(methoxymethyl)-2,7,13,14-tetramethyl-1,4,7,11,14-pentaazacyclooctadecane-3,6,10,15,18-pentaone] | 61.54 | 7.19
COC[C@@H]1NC(=O)[C@H](CCC(=O)N2CCOCC2)N(Cc2ccc(Cl)cc2Oc2ccc(-c3cnc(CN(C)C)n3C)cc2)C(=O)C[C@@H](Cc2ccccc2)C(=O)N(C)[C@H]2CCCC[C@@H]2NC(=O)C[C@H](Cc2ccc(Cl)cc2)N(C)C1=O [Compound 93, (4S,7S,10S,14R,16aS,20aS)-14-benzyl-11-(4-chloro-2-(4-(2-((dimethylamino)methyl)-1-methyl-1H-imidazol-5-yl)phenoxy)benzyl)-4-(4-chlorobenzyl)-7-(methoxymethyl)-5,16-dimethyl-10-(3-morpholino-3-oxopropyl)hexadecahydrobenzo[l][1,4,7,11,14]pentaazacyclooctadecine-2,6,9,12,15(3H)-pentaone] | 96.70 | 8.20

Reference: patent US20230089867A1, “CYCLIC PENTAMER COMPOUNDS AS PROPROTEIN CONVERTASE SUBTILISIN/KEXIN TYPE 9 (PCSK9) INHIBITORS FOR THE TREATMENT OF METABOLIC DISORDER” (Novartis AG, priority 2018, published 2023)
